# From paper PMC4967898, “Peptides interfering with protein-protein interactions in the ethylene signaling pathway delay tomato fruit ripening” (Scientific Reports, 2016)
# “Also recorded” adds a separate entry of the source.
# T1: tomato EIN2-ETR1 complex (Solanum lycopersicum, UniProt Q41342)
# T1 construct: made in house; host or cells: E. coli BL21(DE3) with pRARE (LeEIN2 fragment); E. coli (LeETR1)
# T1 sequence (Q41342 1-754): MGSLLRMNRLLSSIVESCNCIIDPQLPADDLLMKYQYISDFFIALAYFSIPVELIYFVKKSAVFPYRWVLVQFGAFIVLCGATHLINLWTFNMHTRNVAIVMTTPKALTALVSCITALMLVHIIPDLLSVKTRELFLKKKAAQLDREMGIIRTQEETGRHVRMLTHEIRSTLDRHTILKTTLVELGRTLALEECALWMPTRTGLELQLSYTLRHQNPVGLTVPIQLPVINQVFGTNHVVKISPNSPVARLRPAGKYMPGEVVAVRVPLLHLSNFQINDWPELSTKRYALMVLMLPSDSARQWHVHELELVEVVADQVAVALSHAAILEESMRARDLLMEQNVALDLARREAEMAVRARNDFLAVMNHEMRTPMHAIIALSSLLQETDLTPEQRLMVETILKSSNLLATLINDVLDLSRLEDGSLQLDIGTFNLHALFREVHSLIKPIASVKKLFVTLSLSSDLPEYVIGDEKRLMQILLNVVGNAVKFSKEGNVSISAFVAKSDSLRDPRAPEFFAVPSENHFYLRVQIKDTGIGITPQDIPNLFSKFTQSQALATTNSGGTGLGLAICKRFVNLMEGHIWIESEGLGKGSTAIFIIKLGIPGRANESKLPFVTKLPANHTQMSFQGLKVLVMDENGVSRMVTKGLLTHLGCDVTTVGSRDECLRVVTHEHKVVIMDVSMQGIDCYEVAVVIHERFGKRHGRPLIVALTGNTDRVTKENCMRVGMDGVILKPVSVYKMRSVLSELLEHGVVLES
# T2: C-terminal part of tomato EIN2 (LeEIN2^462–1316) (tomato, UniProt Q6Q2C1 462-1316, unlabeled in the MST titration of labeled LeETR1; Alexa Fluor 488 label in the reverse MST titration; Alexa Fluor 568 succinimidyl-ester label in the FRET assay)
# T2 construct: the N-terminal membrane domain (aa 1-461) was deleted from the full-length cDNA; The purified protein was detected with an anti-polyhistidine antibody; no tag removal is described; also called C-terminal domain of tomato EIN2; source: E. coli BL21(DE3) with pRARE, purified (HisTrap FF, PD-10 desalting)
# T2 sequence (looked up): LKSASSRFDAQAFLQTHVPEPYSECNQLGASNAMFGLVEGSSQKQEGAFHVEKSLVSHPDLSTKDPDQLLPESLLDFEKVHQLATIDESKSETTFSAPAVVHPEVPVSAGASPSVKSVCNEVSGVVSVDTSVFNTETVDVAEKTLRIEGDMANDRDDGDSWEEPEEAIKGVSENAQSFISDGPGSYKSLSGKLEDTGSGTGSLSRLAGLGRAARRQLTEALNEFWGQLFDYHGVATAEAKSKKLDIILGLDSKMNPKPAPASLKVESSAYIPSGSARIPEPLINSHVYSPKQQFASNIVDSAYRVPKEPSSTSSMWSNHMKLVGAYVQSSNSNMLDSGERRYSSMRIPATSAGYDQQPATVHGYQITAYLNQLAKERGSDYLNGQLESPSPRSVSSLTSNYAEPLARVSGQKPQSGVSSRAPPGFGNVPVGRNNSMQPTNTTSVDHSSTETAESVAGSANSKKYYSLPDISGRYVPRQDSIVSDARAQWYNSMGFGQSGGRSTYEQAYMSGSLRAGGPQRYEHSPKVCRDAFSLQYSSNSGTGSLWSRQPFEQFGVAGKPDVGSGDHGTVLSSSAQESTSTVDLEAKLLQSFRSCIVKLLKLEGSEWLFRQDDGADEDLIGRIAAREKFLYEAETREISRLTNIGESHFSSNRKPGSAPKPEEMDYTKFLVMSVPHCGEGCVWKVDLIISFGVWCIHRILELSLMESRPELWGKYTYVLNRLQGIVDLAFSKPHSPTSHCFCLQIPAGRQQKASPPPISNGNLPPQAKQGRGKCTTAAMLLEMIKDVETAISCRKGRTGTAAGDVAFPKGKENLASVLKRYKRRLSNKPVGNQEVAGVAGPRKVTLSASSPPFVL
# B1: tomato ethylene receptor protein LeETR1 (receptor, UniProt Q41342 1-754, looked up)
# chain: MGSLLRMNRLLSSIVESCNCIIDPQLPADDLLMKYQYISDFFIALAYFSIPVELIYFVKKSAVFPYRWVLVQFGAFIVLCGATHLINLWTFNMHTRNVAIVMTTPKALTALVSCITALMLVHIIPDLLSVKTRELFLKKKAAQLDREMGIIRTQEETGRHVRMLTHEIRSTLDRHTILKTTLVELGRTLALEECALWMPTRTGLELQLSYTLRHQNPVGLTVPIQLPVINQVFGTNHVVKISPNSPVARLRPAGKYMPGEVVAVRVPLLHLSNFQINDWPELSTKRYALMVLMLPSDSARQWHVHELELVEVVADQVAVALSHAAILEESMRARDLLMEQNVALDLARREAEMAVRARNDFLAVMNHEMRTPMHAIIALSSLLQETDLTPEQRLMVETILKSSNLLATLINDVLDLSRLEDGSLQLDIGTFNLHALFREVHSLIKPIASVKKLFVTLSLSSDLPEYVIGDEKRLMQILLNVVGNAVKFSKEGNVSISAFVAKSDSLRDPRAPEFFAVPSENHFYLRVQIKDTGIGITPQDIPNLFSKFTQSQALATTNSGGTGLGLAICKRFVNLMEGHIWIESEGLGKGSTAIFIIKLGIPGRANESKLPFVTKLPANHTQMSFQGLKVLVMDENGVSRMVTKGLLTHLGCDVTTVGSRDECLRVVTHEHKVVIMDVSMQGIDCYEVAVVIHERFGKRHGRPLIVALTGNTDRVTKENCMRVGMDGVILKPVSVYKMRSVLSELLEHGVVLES
# modifications: Alexa Fluor 488 succinimidyl-ester label (MST with LeEIN2, FRET assay); Alexa Fluor 488-Maleimide label (MST with NOP-1); non-labeled in the reverse MST titration
# notes: ethylene receptor ETR1 of tomato (LeETR1); Membrane protein kept in 0.015% Fos-Choline-16 for MST; also called tomato ETR1; tomato receptor
# What was measured:
# [1] = system: green, immature tomato fruits; assay: Tomato fruit ripening after inhibitor treatment; type: in vivo, tomato (Solanum pimpinellifolium); details: for delay in maturation of tomato fruits: 200 μM, all tested inhibitors and all applications of NOP-1 (injection, incubation, surface application), documented for 20 days, three fruits per application
# Text: To further investigate the potential of NOP-1 for agricultural applications, we tested the effect of the NOP-1 peptide on tomato fruit ripening in comparison to other known inhibitors of ethylene responses. To this end we tested […] (MCP) and aminoethoxyvinylglycine (AVG). MCP is a known inhibitor of ethylene signaling blocking ethylene binding at the receptor proteins, whereas AVG blocks ethylene production in the plant by competitive inhibition of ACC synthases. To monitor inhibition of the fruit ripening process, we treated green, immature tomato fruits with 200 μM NOP-1, MCP or AVG, respectively and documented the fruit ripening process for 20 days. Figure 3 compares the effect of the different inhibitor treatments on tomato fruits to controls lacking the inhibitory treatment that contain either buffer alone or a random sequence control peptide (ROP-1). […] The bioassays underline the high inhibitory potential of NOP-1 on the ripening process compared to the well-known and efficient inhibitors of ethylene responses.
# Inhibitor-treatment of tomato fruits
# Aminoethoxyvinyl glycine (AVG) was purchased from Sigma-Aldrich, St Louis, MO (purity ~95%). SmartFresh^SM (AgroFresh, Spring House, PA) was used as sugar-based powder formulation of 1-MCP. Concentration of 1-MCP was calculated according to the percentage of active ingredient (0.14%) and release from the SmartFresh^SM powder. For comparison concentration of all inhibitors are expressed in terms of molarity. For treatment of tomato fruits with NOP-1, AVG and MCP, inhibitors were dissolved in the FRET buffer described in the previous section to a final concentration of 200 μM. Green tomato fruits (Solanum pimpinellifolium) from the same estimated developmental stage were harvested from the panicle and water-cleaned. 300 μL of the inhibitor solution was applied onto the tomato surface with a brush and the fruits were air-dried for 30 min. As an alternative application, tomato fruits were plunged into 2 mL of the inhibitor solution and incubated for 30 min in this solution or 200 μL of the peptide-containing solution were carefully injected into the tomato tissue by a hypodermic syringe. Three individual tomato fruits were treated for the different applications of the peptide in order to document the ripening process. After inhibitor-treatment tomato fruits were transferred to a vial closed with aluminum foil and stored in the dark at room temperature. Maturation process was documented every second day for at least 20 days. For measurement of ethylene production, green tomato fruits were treated as described above.
# [2] = molecular target: T1, tomato EIN2-ETR1 complex; assay: FRET assay of LeEIN2-LeETR1 complex formation; type: biochemical; details: FRET assay; 100 μM peptide where stated; LeETR1-Alexa Fluor 488 and LeEIN2-Alexa Fluor 568, 3 μM each
# Text: (§1) For this purpose, we made use of a fluorescence resonance energy transfer (FRET)-based in vitro assay, originally established for the respective Arabidopsis signaling proteins. Recombinant ethylene proteins LeETR1 and LeEIN2^462–1316 were labeled with fluorescent Alexa dyes[36] as described in the Methods section. LeETR1 was labeled with Alexa Fluor 488, while LeEIN2^462–1316 was labeled with Alexa Fluor 568. As the emission spectrum of the donor fluorophore partially overlaps with the excitation spectrum of the acceptor fluorophore, the dyes form a FRET pair and energy transfer from the donor to the acceptor fluorophore is possible when both probes get in close proximity. […] Formation of the complex is monitored by FRET from the donor molecule Alexa Fluor 488 to the acceptor molecule Alexa Fluor 568. Processes or molecules that prevent complex formation result in a reduced FRET from the donor to the acceptor, which is detected as reduced acceptor fluorescence at the emission maximum.
# Quantitative analysis of inhibitory peptides on ETR1-EIN2 complex by FRET
# For the FRET assay, recombinant LeETR1 was labeled with Alexa Fluor 488 succinimidyl-ester and LeEIN2^462–1316 was labeled with Alexa Fluor 568 succinimidyl-ester (both Life Technologies) in a buffer containing 50 mM potassium phosphate pH 8.0, 300 mM NaCl and 5% (v/v) glycerol following manufacturer’s protocol (MolecularProbes Protein Labeling Kit). Labeled proteins were transferred in FRET buffer containing 50 mM Tris-HCl pH 8.0, 300 mM NaCl, 0.05% (v/v) Tween 20, 5% (v/v) glycerol and mixed at a final concentration of 3.0 μM each. […] The FRET-based binding assay was carried out in 384-well microplates using an Infinite M200 Pro microplate reader (Tecan) at 455 nm excitation wavelength. Emission spectra were detected between 565 nm to 645 nm. FRET efficiencies were calculated from the maximal emission in the absence and in the presence of the supplied peptides and the half maximal inhibitor concentration IC50 was calculated as previously described.
# [3] = Fluorescence of the dyes on their own (FRET control); details: 100 μM peptide; free dyes
# Text: as §1
# (b) Calculation of IC50 value for NOP-1. Data were obtained in the FRET-assay in presence of increasing concentrations of NOP-1 peptide. […] (c) Determination of Kd value of NOP-1 binding to LeETR1 based on MST is illustrated. MST-signal is plotted against the NOP-1 concentration. […] All data (a,b,c) represent the mean +/− standard deviation.
# [4] = molecular target: T2, C-terminal part of tomato EIN2 …; assay: MST; LeEIN2 462-1316 labeled with Alexa Fluor 488 titrated with non-labeled LeETR1 (Supplementary Fig. S3); details: both partners purified
# [5] = molecular target: T2, C-terminal part of tomato EIN2 …; assay: MST; 0.4 μM LeETR1-Alexa Fluor 488 titrated with LeEIN2 462-1316 (4.69 nM to 9.6 μM); 50 mM Tris-HCl pH 8.0, 300 mM NaCl, 0.015% Fos-Choline-16; Monolith NT.115, 80% MST power, triplicates; details: both partners purified
# [6] = molecular target: B1; assay: MST; 50 nM LeETR1 labeled with Alexa Fluor 488-Maleimide titrated with NOP-1 (3.8 nM to 31 μM); 50 mM Tris-HCl pH 8.0, 300 mM NaCl, 0.015% Fos-Choline-16; 80% MST power; 1:1 model; details: both partners purified
# [7] = molecular target: B1; assay: FRET or BRET; in vitro FRET: LeETR1-Alexa Fluor 488 (donor) and LeEIN2 462-1316-Alexa Fluor 568 (acceptor), 3.0 μM each; 50 mM Tris-HCl pH 8.0, 300 mM NaCl, 0.05% Tween 20, 5% glycerol; proteins pre-incubated with peptides; excitation 455 nm, 384-well plates; details: both partners purified
molecule,measurement,setting,value
"NCCO/C=C/[C@H](N)C(=O)O [AVG, aminoethoxyvinylglycine, reference compound]",delay in maturation of tomato fruits,[1],10 to 15 days
"CC1=CC1 [MCP, 1-methylcyclopropane, reference compound]",delay in maturation of tomato fruits,[1],10 to 15 days
"EFLYMSVN-NH2 [ROP-1, reference compound]",effect on tomato EIN2-ETR1 complex formation,[2],no effect on tomato EIN2-ETR1 complex formation was observed
same,effect on fluorescence of the dyes on their own,[3],"not affected by the peptides; also recorded: Neither of both peptides affected fluorescence of the free, unlabeled dyes"
same,effect on tomato fruit ripening (in words),"[1]; compared with buffer or untreated control, inhibitors at 200 μM",no effect on the ripening process; also recorded: A related delay in ripening was not observed
B1,Kd,[4],651 nM
same,Kd,[5],619 nM
"H-LKRYKRRL-NH2 (the motif is fully conserved in tomato EIN2; also called NLS-based peptide; source: synthetic peptide (Molecular Proteomics Laboratory of the BMFZ Düsseldorf, >90% purity)) [NOP-1 (LKRYKRRL-NH2)]",Kd,[6],156 nM
same,IC50,[7],160000 nM
